Source: article PMC4138103 (PLoS ONE, 2014)
Where two headings read alike, the source gives them in different places.

Tested on: Sprague-Dawley rats
Assay: Retinoid analyses in liver, serum and kidney
Format: in vivo, Rattus norvegicus
Conditions: for CED, Kidney all-trans RA amount / CED, Kidney all-trans RA concentration / CED, Kidney retinol amount / CED, Kidney retinol concentration / CED, Liver retinol amount / CED, Liver retinol concentration / CED, Liver retinyl esters amount / CED, Liver retinyl esters concentration / CED, Serum retinol concentration / CED-L, Kidney all-trans RA amount / CED-L, Kidney all-trans RA concentration / CED-L, Kidney retinol amount / CED-L, Kidney retinol concentration / CED-L, Liver retinol amount / CED-L, Liver retinol concentration / CED-L, Liver retinyl esters amount / CED-L, Liver retinyl esters concentration / CED-L, Serum retinol concentration / CED, Liver 9c-4o-13,14-dh-RA amount / CED, Liver 9c-4o-13,14-dh-RA concentration / CED-L, Liver 9c-4o-13,14-dh-RA amount / CED-L, Liver 9c-4o-13,14-dh-RA concentration / CED, Liver all-trans RA amount / CED, Liver all-trans RA concentration / CED-L, Liver all-trans RA amount / CED-L, Liver all-trans RA concentration / CED, Kidney retinyl esters amount / CED, Kidney retinyl esters concentration / CED-L, Kidney retinyl esters amount / CED-L, Kidney retinyl esters concentration: adipose tissue concentration based; for Emax: Rattus norvegicus, controls vs high dose according to the fitted model
Experimental: Retinoids in liver, serum, and kidney were analyzed according to Schmidt et al.. The polar retinoids 9-cis-retinoic acid (9-cis-RA), 13-cis-retinoic acid (13-cis-RA), 13-cis-4-oxo-retinoic acid (13-cis-4-o-RA), 9-cis-4-oxo-13,14-dihydro-retinoic acid (9-cis-4-o-13,14-dh-RA), all-trans retinoic acid (all-trans RA) and the apolar retinoids retinol and retinyl palmitate were extracted by a single liquid-extraction, separated from each other via solid-phase extraction using an aminopropyl phase, and then injected onto two different HPLC systems that were coupled with UV detection. […] The limits of detection (LOD) for all-trans RA and 9c-4o-13,14-dh-RA were 0.7 and 1.0 pmol/g tissue, and 0.3 and 0.6 pmol/ml serum, respectively. Retinol and retinyl palmitate were separated on a J'sphere ODS-H80 (4.6×150 mm, 4 µm particle size) obtained from YMC (Schermbeck, Germany), and were detected at 325 nm. The LOD for retinol and retinyl palmitate were 5.6 and 5.5 pmol/g tissue, and 4.2 and 4.2 pmol/ml serum, respectively.
Data were also analyzed using the BMD method, which is based on dose-response modeling of the full data set using a nested family of exponential and Hill models. The analyses were done on data of males and females combined, using sex as a covariate. […] In that case, different Critical Effect Doses (CEDs) and CEDs at the lowest bound of the confidence interval (CED-L) were generated for each sex. If no difference between sexes is detected, a CED and CED-Ls for the combined data is generated. However, this was also done if the curve fits are close, and separate analyses for males and females were then performed manually. CEDs and CED-Ls were calculated at the predefined Critical Effect Size (CES) of 5% (EFSA standard) or 10%.

Clc1cc(Cl)c(-c2cc(Cl)c(Cl)c(Cl)c2Cl)cc1Cl [PCB 180, 2,2′,3′,4,4′,5,5′-heptachlorobiphenyl]
CED, Kidney all-trans RA amount (F, CES 5%, model E2): 3290 µg/g lipid | CED, Kidney all-trans RA concentration (F, CES 5%, model E2): 2930 µg/g lipid | CED, Kidney retinol amount (F, CES 5%, model E2): 2240 µg/g lipid | CED, Kidney retinol concentration (F, CES 5%, model E2): 2060 µg/g lipid | CED, Liver retinol amount (F, CES 5%, model E2): 2840 µg/g lipid | CED, Liver retinol concentration (F, CES 5%, model E2): 1000 µg/g lipid | CED, Liver retinyl esters amount (F, CES 5%, model E2): 1620 µg/g lipid | CED, Liver retinyl esters concentration (F, CES 5%, model E2): 793 µg/g lipid | CED, Serum retinol concentration (F, CES 5%, model E2): 2470 µg/g lipid | CED-L, Kidney all-trans RA amount (F, CES 5%, model E2): 2092 µg/g lipid | CED-L, Kidney all-trans RA concentration (F, CES 5%, model E2): 2052 µg/g lipid | CED-L, Kidney retinol amount (F, CES 5%, model E2): 1398 µg/g lipid | CED-L, Kidney retinol concentration (F, CES 5%, model E2): 1346 µg/g lipid | CED-L, Liver retinol amount (F, CES 5%, model E2): 1476 µg/g lipid | CED-L, Liver retinol concentration (F, CES 5%, model E2): 762 µg/g lipid | CED-L, Liver retinyl esters amount (F, CES 5%, model E2): 1206 µg/g lipid | CED-L, Liver retinyl esters concentration (F, CES 5%, model E2): 670 µg/g lipid | CED-L, Serum retinol concentration (F, CES 5%, model E2): 1521 µg/g lipid | CED, Liver 9c-4o-13,14-dh-RA amount (F, CES 5%, model E4): 59.6 µg/g lipid | CED, Liver 9c-4o-13,14-dh-RA concentration (F, CES 5%, model E4): 55.5 µg/g lipid | CED-L, Liver 9c-4o-13,14-dh-RA amount (F, CES 5%, model E4): 37.4 µg/g lipid | CED-L, Liver 9c-4o-13,14-dh-RA concentration (F, CES 5%, model E4): 39.6 µg/g lipid | CED, Kidney all-trans RA amount (F, CES 10%, model E2): 6430 µg/g lipid | CED, Kidney all-trans RA concentration (F, CES 10%, model E2): 5720 µg/g lipid | CED, Kidney retinol amount (F, CES 10%, model E2): 4370 µg/g lipid | CED, Kidney retinol concentration (F, CES 10%, model E2): 4030 µg/g lipid | CED, Liver retinol amount (F, CES 10%, model E2): 5820 µg/g lipid | CED, Liver retinol concentration (F, CES 10%, model E2): 2060 µg/g lipid | CED, Liver retinyl esters amount (F, CES 10%, model E2): 3300 µg/g lipid | CED, Liver retinyl esters concentration (F, CES 10%, model E2): 1630 µg/g lipid | CED, Serum retinol concentration (F, CES 10%, model E2): 4820 µg/g lipid | CED-L, Kidney all-trans RA amount (F, CES 10%, model E2): 4088 µg/g lipid | CED-L, Kidney all-trans RA concentration (F, CES 10%, model E2): 4009 µg/g lipid | CED-L, Kidney retinol amount (F, CES 10%, model E2): 2731 µg/g lipid | CED-L, Kidney retinol concentration (F, CES 10%, model E2): 2630 µg/g lipid | CED-L, Liver retinol amount (F, CES 10%, model E2): 3032 µg/g lipid | CED-L, Liver retinol concentration (F, CES 10%, model E2): 1565 µg/g lipid | CED-L, Liver retinyl esters amount (F, CES 10%, model E2): 2477 µg/g lipid | CED-L, Liver retinyl esters concentration (F, CES 10%, model E2): 1375 µg/g lipid | CED-L, Serum retinol concentration (F, CES 10%, model E2): 2970 µg/g lipid | CED, Liver 9c-4o-13,14-dh-RA amount (F, CES 10%, model E4): 124 µg/g lipid | CED, Liver 9c-4o-13,14-dh-RA concentration (F, CES 10%, model E4): 115 µg/g lipid | CED-L, Liver 9c-4o-13,14-dh-RA amount (F, CES 10%, model E4): 77.9 µg/g lipid | CED-L, Liver 9c-4o-13,14-dh-RA concentration (F, CES 10%, model E4): 82.1 µg/g lipid | CED, Kidney retinol amount (M, CES 5%, model E2): 897 µg/g lipid | CED, Kidney retinol concentration (M, CES 5%, model E2): 863 µg/g lipid | CED, Liver all-trans RA amount (M, CES 5%, model E2): 95.1 µg/g lipid | CED, Liver all-trans RA concentration (M, CES 5%, model E2): 1920 µg/g lipid | CED, Liver retinol amount (M, CES 5%, model E2): 1860 µg/g lipid | CED, Liver retinyl esters amount (M, CES 5%, model E2): 620 µg/g lipid | CED-L, Kidney retinol amount (M, CES 5%, model E2): 638 µg/g lipid | CED-L, Kidney retinol concentration (M, CES 5%, model E2): 640 µg/g lipid | CED-L, Liver all-trans RA amount (M, CES 5%, model E2): 36.8 µg/g lipid | CED-L, Liver all-trans RA concentration (M, CES 5%, model E2): 1143 µg/g lipid | CED-L, Liver retinol amount (M, CES 5%, model E2): 1111 µg/g lipid | CED-L, Liver retinyl esters amount (M, CES 5%, model E2): 525 µg/g lipid | CED, Kidney retinyl esters amount (M, CES 5%, model E4): 38.8 µg/g lipid | CED, Kidney retinyl esters concentration (M, CES 5%, model E4): 42.2 µg/g lipid | CED, Liver retinol concentration (M, CES 5%, model E4): 31.2 µg/g lipid | CED, Liver retinyl esters concentration (M, CES 5%, model E4): 108 µg/g lipid | CED-L, Kidney retinyl esters amount (M, CES 5%, model E4): 12.5 µg/g lipid | CED-L, Kidney retinyl esters concentration (M, CES 5%, model E4): 13.6 µg/g lipid | CED-L, Liver retinol concentration (M, CES 5%, model E4): 18.8 µg/g lipid | CED-L, Liver retinyl esters concentration (M, CES 5%, model E4): 60.1 µg/g lipid | CED, Kidney retinol amount (M, CES 10%, model E2): 1750 µg/g lipid | CED, Kidney retinol concentration (M, CES 10%, model E2): 1690 µg/g lipid | CED, Liver all-trans RA amount (M, CES 10%, model E2): 196 µg/g lipid | CED, Liver all-trans RA concentration (M, CES 10%, model E2): 3750 µg/g lipid | CED, Liver retinol amount (M, CES 10%, model E2): 3820 µg/g lipid | CED, Liver retinyl esters amount (M, CES 10%, model E2): 1270 µg/g lipid | CED-L, Kidney retinol amount (M, CES 10%, model E2): 1244 µg/g lipid | CED-L, Kidney retinol concentration (M, CES 10%, model E2): 1250 µg/g lipid | CED-L, Liver all-trans RA amount (M, CES 10%, model E2): 76 µg/g lipid | CED-L, Liver all-trans RA concentration (M, CES 10%, model E2): 2233 µg/g lipid | CED-L, Liver retinol amount (M, CES 10%, model E2): 2282 µg/g lipid | CED-L, Liver retinyl esters amount (M, CES 10%, model E2): 1078 µg/g lipid | CED, Kidney retinyl esters amount (M, CES 10%, model E4): 78.3 µg/g lipid | CED, Kidney retinyl esters concentration (M, CES 10%, model E4): 85.2 µg/g lipid | CED, Liver retinol concentration (M, CES 10%, model E4): 66.6 µg/g lipid | CED, Liver retinyl esters concentration (M, CES 10%, model E4): 225 µg/g lipid | CED-L, Kidney retinyl esters amount (M, CES 10%, model E4): 25.2 µg/g lipid | CED-L, Kidney retinyl esters concentration (M, CES 10%, model E4): 27.5 µg/g lipid | CED-L, Liver retinol concentration (M, CES 10%, model E4): 40.0 µg/g lipid | CED-L, Liver retinyl esters concentration (M, CES 10%, model E4): 126 µg/g lipid | Emax (F, model E2, read-out: Maximum response, Kidney all-trans RA amount): 18.2% | Emax (F, model E2, read-out: Maximum response, Kidney all-trans RA concentration): 20.7% | Emax (F, model E2, read-out: Maximum response, Kidney retinol amount): 28% | Emax (F, model E2, read-out: Maximum response, Kidney retinol concentration): 30.7% | Emax (F, model E2, read-out: Maximum response, Liver retinol amount): -18.5% | Emax (F, model E2, read-out: Maximum response, Liver retinol concentration): -43.9% | Emax (F, model E2, read-out: Maximum response, Liver retinyl esters amount): -30.1% | Emax (F, model E2, read-out: Maximum response, Liver retinyl esters concentration): -51.9% | Emax (F, model E2, read-out: Maximum response, Serum retinol concentration): 25%
